Test results taken from patent EP0423707A2, “Platinum complexes” (Bristol-Myers Squibb Company, priority 1989, dated 1991).

Tests used:
[1] = test system: HCT-116 human colon carcinoma cells; assay: In vitro cytotoxicity, crystal violet staining after 72 hours incubation; format: cell-based; details: HCT-116 cells
Method: (§1) The cytotoxic activity of the platinum complexes were evaluated in vitro using B16-F10 murine melanoma cells and HCT-116 human colon carcinoma cells. The B16-F10 cell line was maintained cultured in Eagle's Minimum Essential Medium (MEM) with Earle's salts (Gibco; Grand Island, NY) enriched with 2 millimoles of L-glutamine, 2.06 millimoles of sodium pyruvate, insulin (0.26 units/ml), penicillin/streptomycin (10 units/milliliter and 10 micrograms/milliliter, respectively), MEM non-essential amino acids (0.6% Gibco; Grand Island, NY), and 10% fetal bovine serum (Hyclone; Logan, UT). The HCT-116 cells were grown in McCoy's 5A medium (modified, Gibco; Grand Island, NY) supplemented with 2 millimoles of L-glutamine, 0.12 millimoles of L-serine, 0.17 millimoles of asparagine, 1.5 millimoles of sodium pyruvate, MEM essential amino acids (0.67%, Gibco; Grand Island, NY), MEM vitamins (0.6%, Gibco; Grand Island, NY), fetal calf serum (10%, Hyclone; Logan, UT), and penicillin/streptomycin (10 units/milliliter and 10 micrograms/milliter, respectively). Both cell lines were incubated at 37°C in 5% CO₂/balance air high-humidity incubator.
(§2) Logarithmically growing cells were then harvested by mild trypsinization, and 4000 cells were added to each well of a 96-well microtiter plate (Costar; Cambridge, MA). The plates were incubated at 37°C in 5% CO₂ overnight to permit cell attachment to the plate. The cells were then treated with a platinum complex according to the present invention, cisplatin, or iproplatin and then incubated for 72 hours. After incubating, the plates were inverted and shaken to remove media, drug, and detached cells. Formalin (10%) in phosphate buffered saline was added and the cells fixed for 10 minutes. The fixative was then removed, the plates air dried, stained with 0.0075% crystal violet for 15 minutes, washed twice, and air dried. The stain is solubilized with 0.2 milliliters of 0.2 Molar AcOH/EtOH (1:1) and optical densities determined using a Dynatech MR600 microtiter plate reader (Dynatech; Chantilly, VA). IC50 values are calculated by linear regression analysis of absorption data.
(§3) For the above described in vitro cytotoxicity studies, the compounds are dissolved or suspended, depending on their solubility, in 0.9% Sodium Chloride or 10% ethanol in 0.9% Sodium Chloride. The compounds are prepared for in vivo treatment by dissolving or suspending in water (minimal amounts of Tween 80), 0.9% Sodium Chloride, or 10% ethanol in 0.9% Sodium Chloride. Olive oil or cotton seed oil are used for in vivo studies when the compounds are oil soluble compounds (see, for example, in Table 8, an oil soluble compound in olive oil, Example 9 (2-ethylhexanoate derivative), below).

[2] = test system: B16-F10 murine melanoma cells; assay: as above; format: cell-based
Method: as §1, §2, §3

L1210 murine leukemia [3] = assay: Activity against L1210 murine leukemia, intracerebral implanted tumor; format: in vivo, CDF1 mice; details: single intraperitoneal dose on Day 3, at the dose producing the maximum effect, median survival time vs saline controls
Method: (§4) The platinum complexes according to the present invention were tested for antitumor activity against L1210 murine leukemia. CDF1 mice weighing 20 grams were inoculated intraperitoneally or intracerebrally with 10⁶ or 10⁵ ascites cells of L1210 leukemia, respectively.
(§5) Drug administration was initiated the day following intra-peritoneal tumor implantation or 3 days following intracerebral implant. The complexes were administered at various dose levels by intraperitoneal injection. Groups of 4 to 6 mice were used for each dose level, and they were treated with a single dose of the complex on the treatment day. A group of 10 saline treated control mice were included in each experiment. Cisplatin and iproplatin treated groups were included as positive controls in each experiment.
(§6) The mice were weighed before treatment and again on day 5 or 6, and the average weight change was used as a measure of toxicity. The animals were observed daily for mortality, and the experiments terminated after 30 days. Antitumor activity was determined based on percent T/C, which is the ratio of the median survival time of the drug treated group to the median survival time of the saline treated control group times 100.
(§7) A complex was considered active if it produced a T/C greater than or equal to 125 percent. […]

M5076 sarcoma = assay: Activity against M5076 sarcoma, subcutaneous implant; format: in vivo, BDF1 mice; details: Days 5, 9, 13, and 17, at the dose producing the maximum effect; for MAXIMUM % T/C: median survival time vs controls; for MAXIMUM T-C: median time for tumors to reach 1 gram relative to controls
Method: Platinum complexes according to the present invention were additionally evaluated for further antitumor activity against M5076 sarcoma. BDF1 mice, 8 per group, were inoculated subcutaneously with a fragment of M5076 sarcoma.
Intraperitoneal or intravenous treatment with the complexes was initiated 5 days after implant and was continued on days 9, 13, and 17 for a total of 4 treatments. From 4 to 6 doses were tested for each compound under study.
A saline treated control group and cisplatin treated groups were included in each experiment. The mice were observed daily for survivors, and the experiments terminated after 75-80 days.
Antitumor activity was determined based on a) median survival time of the drug treated mice relative to that of the controls (percent T/C) and b) the median time for tumors to reach 1 gram in drug treated mice relative to the controls (T-C). A complex was considered active if it produced a T-C greater than or equal to 13 days.
as §3

L1210 murine leukemia [4] = assay: Activity against L1210 murine leukemia, intraperitoneal implanted tumor; format: in vivo, CDF1 mice; details: single intraperitoneal dose on Day 1, at the dose producing the maximum effect, median survival time vs saline controls
Method: as §4, §5, §6, §7

P388 murine leukemia = assay: Activity against P388 murine leukemia, intravenous inoculation, oral treatment; format: in vivo, CDF1 mice; details: administered orally (by gavage) 1 time on Day 1; at the dose producing the maximum effect; median survival time vs saline controls
Method: The platinum complexes according to the present invention were tested for antitumor activity against P388 murine leukemia. CDF1 mice weighing 20 grams were inoculated intravenously with 10⁶ ascites cells of P388 leukemia.
Drug administration of the platinum complexes was initiated on the day following the intravenous tumor inoculation. The complexes were administered at various dosage levels by oral gavage. Groups of 6 mice were used for each dose level, and they were treated with a single dose of the complex on the treatment day. A group of 10 saline treated control mice were included in each experiment. Cisplatin treated groups were included as positive controls in each experiment.
as §6
A complex was considered active if it produced a T/C greater than or equal to 125 percent.
For the above described in vitro cytotoxicity studies, the compounds are dissolved or suspended, depending on their solubility, in 0.9% Sodium Chloride or 10% ethanol in 0.9% Sodium Chloride. […]

Row | Compound | IC50 HCT116 [1] | IC50 B16 [2] | MAXIMUM % T/C (L1210 murine leukemia [3]) [%] | MAXIMUM % T/C (M5076 sarcoma; route ip) | MAXIMUM T-C (M5076 sarcoma; route ip) [days] | MAXIMUM % T/C (L1210 murine leukemia [4]) | MAXIMUM % T/C (P388 murine leukemia) [%] | MAXIMUM % T/C (M5076 sarcoma; route iv) | MAXIMUM T-C (M5076 sarcoma; route iv) [days]
1 | Iproplatin | 20.2-31.2 micrograms/milliter | 66.8-243 micrograms/milliter | 157 | 160+^b % | 34.5 | 143-171% | – | – | –
2 | N.N.[Cl][Pt][Cl] [Cisplatin] | 4.2-4.5 micrograms/milliter | 5.4-7.3 micrograms/milliter | 114 | 126% | 33 | 143-207% | 173 | 114-126% | 25 to 27.3
